Measurements published in patent US11566049B2, “Cyclic peptides and uses thereof” (LATERAL IP PTY LTD, priority 2018, dated 2023).
Where “and” joins values, the source holds several entries; their conditions need not be identical. Equal values may be shown once. Entries after “also recorded” stand apart in the source; their conditions may differ. Positions of bridges follow the written chain, without caps; N, C: chain ends. No end group written: not given here.

How the values were obtained:
dorsal horn neurons [1] = test: whole-cell recording of dorsal horn neurons in spinal cord slices from Chung models (Example 3); type: cell-based, rat; settings: 5 μM; for Input Resistance, mean in presence of peptide / Membrane Potential, mean in presence of peptide: all cells; for Normalised Input Resistance / Normalised Input Resistance ΔIR: control = 100; for effect on membrane potential and activity of dorsal horn neurons: ipsilateral to injury; for Normalised Membrane Potential / Normalised Membrane Potential ΔVm: rest = 100; for ΔIR, change in neuronal input resistance: vs control, positive in table = reduction; for ΔVm, change in membrane potential: vs rest, positive in table = hyperpolarisation
Experimental: Spinal nerve ligation (Chung model; as described in Examples 1 and 2, above) was performed by a single tight ligation on the L5 spinal nerve. […] This animal model is often used as the “gold standard” for neuropathic pain.
Adult male Sprague-Dawley rats, weighing 220-250 g (aged 7 weeks and older) at the time of surgery, were used in this study. They were housed in groups of 4, in an air-conditioned room, on a 12-hour light/dark cycle with food and water available ad libitum. All experiments were performed in accordance with the U. K. Animals (Scientific Procedures) Act (1986).
The animals were housed in groups of 4 in an air-conditioned room on a 12-hour light/dark cycle. Food and water were available ad libitum. Animals were allowed to acclimatise to the environment for experiments for three days by leaving them on a raised metal mesh for at least 40 min. The baseline paw withdrawal threshold (PWT) was examined using a series of graduated von Frey hairs (see below) for 3 consecutive days before surgery and re-assessed on the 6th to 8th day after surgery and on the 12th to 14th day-after surgery before drag dosing.
(§1) Each rat was anaesthetized with 5% isoflurane mixed with oxygen (2 L per min) followed by an intramuscular (i.m.) injection of ketamine 90 mg/kg plus xylazine 10 mg/kg. The back was shaved and sterilized with povidone-iodine. The animal was placed in a prone position and a para-medial incision was made on the skin covering the L4-6 level. The L5 spinal nerve was carefully isolated and tightly ligated with 6/0 silk suture. The wound was then closed in layers after a complete haemostasis. A single dose of antibiotics (Amoxipen, 15 mg/rat, i.p.) was routinely given for prevention of infection after surgery. The animals were placed in a temperature-controlled recovery chamber until fully awake before being returned to their home cages.
The peptides of SEQ ID NO:27 (also referred to herein as LAT9993 Loop) and SEQ ID NO:28 (also referred to herein as LAT9993S or LAT9993 LoopS), were solubilised in distilled water and made up as concentrated stocks and stored frozen until the day of experiment when they were diluted to the required test concentrations in artificial cerebrospinal fluid (aCSF). The aCSF comprised (mM): NaCl, 127; KCl, 1.9; KH2PO4, 1.2; CaCl2, 2.4; MgCl2, 1.3; NaHCO3, 26; D-glucose, 10; equilibrated with 95% O2-5% CO2.
(§2) Ten to fourteen days after surgery, animals were placed in individual Perspex boxes on a raised metal mesh for at least 40 minutes prior to PWT testing. Starting with the filament of lowest force (1 g), each filament was applied perpendicularly to the centre of the ventral surface of the paw until slightly bent for 6 seconds. If the animal withdrew or lifted its paw upon stimulation, a von Frey hair with force immediately lower than that tested was subsequently used. If no response was observed, then a hair with force immediately higher was tested. The lowest amount of force required to induce reliable responses (positive in 2 out of 3 trials) was recorded as the value of PWT. Only animals showing significant mechanical allodynia (PWT≤3.5 g) were selected for subsequent electrophysiological experiments (see FIG. 5).
(§3) Once validation of a neuropathic state had been confirmed, animals were terminally anesthetized using isoflurane (Norvartis Animal Health UK Ltd.), cervically dislocated and decapitated. A laminectomy was performed and the spinal cord, with spinal roots and DRG attached, removed and cut into 250-450 μm thick slices using a Leica VT1000S vibrating microtome (Leica Microsystems UK, Milton Keynes, United Kingdom). Slices were maintained in artificial cerebrospinal fluid (aCSF) at room temperature for 1 hr after slicing before recording. For recording, individual slices were held between two grids in a custom-built chamber continuously perfused with aCSF at a rate of 4-10 ml.min^−1, illuminated from below, and viewed under a dissection microscope. […]

dorsal horn neurons [2] = test: whole-cell recording of dorsal horn neurons in spinal cord slices from Chung models (Example 4); type: cell-based, rat; settings: 1 μM; for Input Resistance, mean in presence of peptide / Membrane Potential, mean in presence of peptide: all cells; for Normalised Input Resistance / Normalised Input Resistance ΔIR: control = 100; for effect on membrane potential and activity of dorsal horn neurons: ipsilateral to injury; for Normalised Membrane Potential / Normalised Membrane Potential ΔVm: rest = 100; for ΔIR, change in neuronal input resistance: vs control, in table positive = reduction, negative = increase
Experimental: Adult male Sprague-Dawley rats, weighing 220-250 g (aged/weeks and older) at the time of surgery, were used in this study. They were housed in groups of 4, in an air-conditioned room, on a 12-hour light/dark cycle with food and water available ad libitum. All experiments were performed in accordance with the U.K. Animals (Scientific Procedures) Act (1986).
The animals were housed in groups of 4 in an air-conditioned room on a 12-hour light/dark cycle. Food and water were available ad libitum. They were allowed to acclimatise to the environment for experiments for three days by leaving them on a raised metal mesh for at least 40 min. The baseline paw withdrawal threshold (PWT) was examined using a series of graduated von Frey hairs (see below) for 3 consecutive days before surgery and re-assessed on the 6th to 8th day after surgery and on the 12th to 14th day after surgery before drug dosing.
as §1
LAT9993 LoopS (SEQ ID NO:28), SEQ11+LAT9993 Loop (SEQ ID NO:32; […]), SEQ25+LAT9993 Loop (SEQ ID NO:33; […]), LAT9993 SLoop A4 (SEQ ID NO:30), LAT9993 SLoop A7 (SEQ ID NO:31), LAT9993 SLoop A9 (SEQ ID NO:34; SCRSRPVEASC) and LAT9993 SLoop A10 (SEQ ID NO:35; SCRSRPVESAC), were solubilised in distilled water and made up as concentrated stocks and stored frozen until the day of experiment when they were diluted to the required test concentrations in artificial cerebrospinal fluid (aCSF), as described in Example 3, above.
as §2
as §3, with “microscope. The aCSF was of the following composition (mM): NaCl, 127; KCl, 1.9; KH2PO4, 1.2; CaCl2, 2.4; MgCl2, 1.3; NaHCO3, 26; D-glucose, 10; equilibrated with 95% O2-5% CO2.” for “microscope.”

Sequence | dorsal root afferent-mediated EPSPs (dorsal horn neurons [1]) | Input Resistance, mean in presence of peptide (dorsal horn neurons [1]) | Membrane Potential, mean in presence of peptide (dorsal horn neurons [1]) | Normalised Input Resistance (dorsal horn neurons [1]) | Normalised Input Resistance ΔIR (dorsal horn neurons [1]) | effect on membrane potential and activity of dorsal horn neurons (dorsal horn neurons [1]) | Normalised Membrane Potential (dorsal horn neurons [1]) | Normalised Membrane Potential ΔVm (dorsal horn neurons [1]) | ΔIR, change in neuronal input resistance (dorsal horn neurons [1]) | ΔVm, change in membrane potential (dorsal horn neurons [1]) | dorsal root afferent-mediated EPSPs / synaptic inputs (words) (dorsal horn neurons [2]) | Input Resistance, mean in presence of peptide (dorsal horn neurons [2]) | Membrane Potential, mean in presence of peptide (dorsal horn neurons [2]) | Normalised Input Resistance (dorsal horn neurons [2]) | Normalised Input Resistance ΔIR (dorsal horn neurons [2]) | Normalised Membrane Potential (dorsal horn neurons [2]) | Normalised Membrane Potential ΔVm (dorsal horn neurons [2]) | ΔIR, change in neuronal input resistance (dorsal horn neurons [2]) | also measured
CRSRPVESSC (disulfide 1-10 (inferred); listed as Homo sapiens) [LAT9993 Loop, cyclic peptide of formula (I), disulphide bond between the two cysteine residues] | suppression; also recorded: suppressed dorsal root afferent mediated excitatory synaptic transmission | 566.3±82.0 MΩ and 566.3 MΩ | −51.9±3.9 mV and −51.9 mV | 92.4 | 7.6 | marked membrane hyperpolarisation and inhibition of activity in 4 neurons; also recorded: little effect on a further 2 dorsal horn neurons | 107.2 | −7.2 | 51.6±75.3 MΩ and 51.6 MΩ | 3.5±1.1 mV and 3.5 mV | – | – | – | – | – | – | – | – | evoked inhibitory post-synaptic potentials (dorsal horn neurons [1]): little effect
CRSRPVESSCS (disulfide 1-10 (inferred); listed as Homo sapiens) [LAT9993 LoopS, cyclic peptide of formula (I), disulphide bond between the two cysteine residues] | suppression of dorsal root afferent-mediated EPSPs, in one neurone selectively | 788±191.9 MΩ and 788.0 MΩ | −50.6±1.8 mV and −50.6 mV | 95.6 | 4.4 | membrane hyperpolarisation and inhibition of activity in 3 neurons; also recorded: little effect on a further 2 dorsal horn neurons; also recorded: principally induced inhibition of dorsal horn neurons or was without significant effect | 109.2 | −9.2 | 22.1±24.2 MΩ and 22.1 MΩ | 3.8±2 mV and 3.8 mV | either slightly suppressed dorsal root-evoked excitatory post-synaptic potentials (EPSPs) or had little effect; also recorded: little effect | 502.6±104.1 MΩ and 502.6 MΩ | −44.7±4.3 mV and −44.7 mV | 92.8 | 7.2 | 91.5 | 8.5 | 28.7±34.9 MΩ and 28.7 MΩ | effect on membrane potential and activity of dorsal horn neurons (dorsal horn neurons [2]): membrane hyperpolarisation and inhibition of activity in 1 neurone; also recorded: membrane depolarisation in the other two neurons; also recorded: small excitation of dorsal horn; dorsal root afferent-mediated EPSPs / synaptic inputs (words) (dorsal horn neurons [2]; listed as LAT9993 Loop S): little effect; reversal potential of induced response (VI plots intersect) (dorsal horn neurons [2]; single cells): around −85 mV; dorsal root afferent-mediated EPSPs (dorsal horn neurons [1]; listed as LAT999 LoopS): suppressed dorsal root-evoked excitatory posts-synaptic potentials (EPSPs) in two neurons; dorsal root afferent-mediated EPSPs (dorsal horn neurons [1]; listed as LAT9993S): suppression of EPSPs; also recorded: selectively suppressed; reversal potential of induced response (VI plots intersect) (dorsal horn neurons [1]; single cells): around −55 mV
SCRSRPVESAC (listed as Homo sapiens) [LAT9993 SLoop A10, peptide variant of formula (I)] | – | – | – | – | – | – | – | – | – | – | little effect | 452.3 MΩ | −56.8±5.6 mV and −56.8 mV | 99.3 | 0.7 | 101.2 | −1.2 | −8.5 MΩ | Input Resistance, mean in presence of peptide (dorsal horn neurons [2]; listed as LAT9993 Loop A10): 452.3±197.1 MΩ; effect on membrane potential and activity of dorsal horn neurons (dorsal horn neurons [2]; listed as LAT9993 Loop A10): membrane hyperpolarisation and inhibition of activity in 2 neurons; also recorded: membrane depolarisation in 1 neurone; also recorded: little effect on dorsal horn neurons; ΔIR, change in neuronal input resistance (dorsal horn neurons [2]; listed as LAT9993 Loop A10): 8.5±26.5 MΩ; ΔVm, change in membrane potential (dorsal horn neurons [2]; vs rest, in table positive = hyperpolarisation, negative = depolarisation): 0.7±1.2 mV and 0.7 mV
